As usually defined, the logD is the decadic logarithm of the distribution of all forms, ionised or not, between an organic phase and buffer at a given pH. As a reminder, the IC50 is the point on the concentration scale where inhibition reaches its midpoint. Broadly, the thermodynamic solubility is solubility found after equilibrating the solid with the medium. As a reminder, the clearance is the rate of elimination divided by the concentration. As a reminder, the bioavailability is dose-corrected exposure relative to a reference, in per cent. A word on the Tmax: it is the time from dosing to the highest level.

Molecules are shown by their SMILES. Converted amounts (≈) assume the structure as drawn.

These results are taken from ChEMBL document CHEMBL4321852, “Structure-Based and Property-Driven Optimization of N-Aryl Imidazoles toward Potent and Selective Oral RORγt Inhibitors” (J Med Chem, 2019).

Data set [1] can be described thus: Lipophilicity of the compound, high-throughput logP using octanol-coated immobilized artificial membranes at pH 7.4. The format is physicochemical.
A short description of data set [2]: Inhibition of RORgammat in rat CD4+ T-cells polarized with Th17 cytokine mix assessed as inhibition of IL-17 secretion.
Data set [3] can be described thus: Inverse agonist activity at RORgammat in rat whole blood assessed as reduction in Con A/IL-23-stimulated IL-17 secretion after 72 hrs by ELISA. (In general: ELISA stands for enzyme-linked immunosorbent assay.)
A short description of data set [4]: Distribution coefficient of the compound, high-throughput logD using octanol-buffer at pH 7.4 by LC-MS/MS analysis shake flask method. The data set is classed as physicochemical.
A further data set deals with Cytochrome P450 3A4 (Homo sapiens, UniProt P08684). Briefly: Time dependent inhibition of CYP3A4 (unknown origin). The data set is classed as ADME. The arrangement: concentration or dose not given beside the values.
Cytochrome P450 3A4, sequence (P08684 whole entry): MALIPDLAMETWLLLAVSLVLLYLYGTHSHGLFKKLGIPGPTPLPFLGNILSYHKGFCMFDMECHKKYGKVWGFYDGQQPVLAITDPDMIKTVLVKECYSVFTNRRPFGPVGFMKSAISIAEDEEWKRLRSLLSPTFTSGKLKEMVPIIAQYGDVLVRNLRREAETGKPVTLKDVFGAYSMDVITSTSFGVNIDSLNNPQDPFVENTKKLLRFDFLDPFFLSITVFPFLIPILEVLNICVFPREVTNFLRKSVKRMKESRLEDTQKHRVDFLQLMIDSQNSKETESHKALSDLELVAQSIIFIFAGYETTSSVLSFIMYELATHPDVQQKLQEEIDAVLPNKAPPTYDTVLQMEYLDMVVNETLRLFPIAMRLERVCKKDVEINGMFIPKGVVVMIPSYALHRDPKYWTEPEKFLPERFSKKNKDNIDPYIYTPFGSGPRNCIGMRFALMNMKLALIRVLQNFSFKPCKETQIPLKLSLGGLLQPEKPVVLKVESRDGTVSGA
Data set [5] can be described thus: Intrinsic clearance in rat liver microsomes. The format is ADME, Microsome. The following applies: read-out: CLH. In general terms: Microsomes from liver hold many membrane-bound enzymes, among them those of drug oxidation.
A short description of data set [6]: Equilibrium aqueous solubility of the compound in pH 6.8 solution. The data set is classed as physicochemical. The settings on record: aqueous pH 6.8 solution.
The nature of data set [7]: Clearance in Sprague-Dawley rat at 1 mg/kg, iv. The data set is classed as ADME, organism-based. The settings on record: in vivo.
The nature of data set [8]: Volume of distribution at steady state in Sprague-Dawley rat at 1 mg/kg, iv. The data set is classed as ADME, organism-based. The following applies: in vivo, read-out: Vdss.
Data set [9] in a line: Terminal half life in Sprague-Dawley rat at 1 mg/kg, iv. The format is ADME, organism-based. The following applies: in vivo, read-out: beta t1/2 (converted).
Data set [10] in a line: Dose normalized AUC in Sprague-Dawley rat at 1 mg/kg, iv. The settings on record: in vivo. The format is ADME, organism-based.
A short description of data set [11]: Dose normalized AUC in Sprague-Dawley rat at 3 mg/kg, po. The format is ADME, organism-based. The settings on record: in vivo.
The nature of data set [12]: Oral bioavailability in Sprague-Dawley rat at 3 mg/kg. The data set is classed as ADME, organism-based. The settings on record: in vivo.
The nature of data set [13]: Dose normalized Cmax in Sprague-Dawley rat at 3 mg/kg, po. The format is ADME, organism-based. The settings on record: in vivo.
A short description of data set [14]: Tmax in Sprague-Dawley rat at 3 mg/kg, po. The data set is classed as ADME, organism-based. The following applies: in vivo.

For `CC(C)OC(=O)[C@H](C)N(C(=O)c1ccco1)c1c(Cl)cccc1Cl`, the pH-dependent lipophilicity (logD) in [1] was determined as 4.1.
`Cc1c(C(F)(F)F)nc(-c2ccc(Cl)o2)n1-c1c(Cl)ccc(N2CC(CC(=O)O)C2)c1Cl`: the IC50 in data set [2] came to 869 nM; in [3] it was 696 nM. The same compound came in with a logD in data set [4] of 2.5. Further, the K at Cytochrome P450 3A4 is greater than 0.1 min⁻¹.
For `N#Cc1cccc(C#N)c1-n1cc(C2CC2)nc1-c1cnco1`, the logD in data set [1] and in data set [4] was 1.1 each time. In addition, the microsomal CLint in data set [5] was 33 µL/min/mg. The solubility (thermodynamic) in data set [6] is greater than 1000 µM.
In the case of `Cc1c(C(F)(F)F)nc(-c2ccc(Cl)o2)n1-c1c(Cl)ccc(N2CC(c3nnn[nH]3)C2)c1Cl`, the logD in data set [1] and in data set [4] was 2.5 in each case. Besides, in data set [5], the microsomal CLint came out at 49 µL/min/mg. Also, the thermodynamic solubility in data set [6] was greater than 1000 µM.
On to `Cc1c(Cc2ccccc2)nc(-c2ccco2)n1-c1c(Cl)cccc1Cl`, for which the IC50 was 56 nM in [2] and 82 nM in data set [3]. Besides, the logD in [1] was greater than 6.9.
Turning to `Cc1c(C(F)(F)F)nc(-c2ccc(Cl)o2)n1-c1c(Cl)cccc1Cl`, the logD in data set [1] and in [4] was 6.3 throughout. For the same compound, the microsomal CLint in data set [5] was 722 µL/min/mg. In data set [6], the solubility (thermodynamic) is less than 4 µM.
As to `Cc1c(CC(C)C)nc(-c2ccco2)n1-c1c(Cl)cccc1Cl`, the IC50 was found to be 325 nM in [2] and 294 nM in data set [3]. Moreover, the logD in data set [1] and in [4] was greater than 6.9 in each case. Also, the microsomal CLint in data set [5] was 693 µL/min/mg. The thermodynamic solubility in [6] was less than 4 µM.
Consider `CC(C)Cc1cn(-c2c(C#N)cccc2C#N)c(-c2cnco2)n1`, for which the logD in data set [1] and in data set [4] was 2 in each case. In [5], the microsomal CLint is 153 µL/min/mg. Besides, the solubility (thermodynamic) in data set [6] was 350 µM (≈ 111 µg/mL).
`CCOC(=O)C(C)N(C(=O)c1cccs1)c1c(C)cccc1Cl` (racemic) returned a logD in data set [1] of 3.6.
With `Cc1c(CC(C)C)nc(-c2ccc(Cl)o2)n1-c1c(Cl)ccc(N2CC(C(=O)O)C2)c1Cl` (single isomer, unassigned; atropisomer), the logD in [1] and in data set [4] was 3 in each case. Further, in data set [5], the microsomal CLint is 222 µL/min/mg. This compound also showed a solubility (thermodynamic) in data set [6] of 690 µM (≈ 333 µg/mL). In addition, the clearance in [7] stood at 228 mL/min/kg. Besides, in data set [8], the Vd worked out at 3.6 L/kg. Also, in [9], the half-life is 12 min. Also, the AUC/dose was found to be 156 nM·h in [10] and 70 nM·h in data set [11]. The compound also registered a bioavailability in [12] of 45%. Moreover, the Cmax/dose in [13] stood at 166 nM. For the same compound, the Tmax in [14] turned out to be 36 min.
In the case of `Cc1c(C2(C(F)(F)F)CC2)nc(-c2ccc(Cl)o2)n1-c1c(Cl)ccc(NCC(C)(C)C(=O)O)c1Cl` (single isomer, unassigned; atropisomer), the IC50 worked out at 306 nM in data set [2] and 79 nM in [3]. In addition, the pH-dependent lipophilicity (logD) in data set [4] turned out to be 3.2. Moreover, the K at Cytochrome P450 3A4 worked out at 0.011 min⁻¹.
Take `Cc1c(C(F)(F)F)nc(-c2ccc(Cl)o2)n1-c1c(Cl)ccc(N2CC(C(=O)O)C2)c1Cl` (single isomer, unassigned; atropisomer): the IC50 in [2] stood at 1690 nM; in data set [3], 4510 nM. Also, the logD in data set [1] and in data set [4] was 2.4 in each case. Also, the microsomal CLint in data set [5] was 56 µL/min/mg. The thermodynamic solubility in data set [6] is greater than 1000 µM. In data set [7], this compound had a clearance of 30 mL/min/kg. Further, in data set [8], the Vd was 4 L/kg. Further, the half-life in data set [9] is 276 min. The figures for the AUC/dose in data set [10] and in data set [11] were 1179 nM·h and 945 nM·h, respectively. Further, the bioavailability in [12] worked out at 80%. In [13], this compound gave a Cmax/dose of 181 nM. Moreover, the Tmax in data set [14] turned out to be 78 min. Also, the K on Cytochrome P450 3A4 was 0.047 min⁻¹.
`Cc1c(C(F)(F)F)nc(-c2ccc(Cl)o2)n1-c1c(Cl)ccc(N2CC(C(N)=O)C2)c1Cl` (single isomer, unassigned; atropisomer): the logD in data set [1] and in [4] was 4.9 each time. Further, the microsomal CLint in [5] was 169 µL/min/mg. The compound further registered a solubility (thermodynamic) in [6] of 40 µM (≈ 19.7 µg/mL).
